Measurements from the NIST ThermoML archive (doi:10.1016/j.jct.2004.07.008).
± gives the expanded uncertainty stated by the source.

Test: xn = mol fraction of the nth substance listed
Conditions: 100 kPa, Liquid

CCNCC [diethylamine] + O
mass density [kg/m3]
Conditions	278.15 K	288.15 K	293.15 K	298.15 K	308.15 K
x1 = 0.0006	999.491 ± 0.26	998.664 ± 0.26	997.751 ± 0.26	996.626 ± 0.27	993.562 ± 0.28
x1 = 0.0024	997.912 ± 0.26	997.039 ± 0.27	996.154 ± 0.27	994.988 ± 0.27	991.942 ± 0.28
x1 = 0.0035	996.932 ± 0.31	996.037 ± 0.27	995.136 ± 0.27	993.969 ± 0.28	990.903 ± 0.51
x1 = 0.0044	996.139 ± 0.27	995.23 ± 0.27	994.323 ± 0.27	993.151 ± 0.28	990.065 ± 0.29
x1 = 0.0056	995.225 ± 0.27	994.285 ± 0.27	993.371 ± 0.28	992.182 ± 0.28	989.066 ± 0.29
x1 = 0.0064	994.57 ± 0.27	993.602 ± 0.28	992.679 ± 0.28	991.472 ± 0.28	988.353 ± 0.29
x1 = 0.0081	993.249 ± 0.28	992.212 ± 0.28	991.279 ± 0.28	990.04 ± 0.29	986.873 ± 0.3
x1 = 0.0097	992.04 ± 0.28	990.934 ± 0.28	989.98 ± 0.29	988.714 ± 0.29	985.476 ± 0.3
x1 = 0.0172	987.17 ± 0.29	985.63 ± 0.3	984.539 ± 0.3	983.09 ± 0.31	979.496 ± 0.32
x1 = 0.0291	980.983 ± 0.31	978.376 ± 0.32	976.96 ± 0.33	975.088 ± 0.33	970.666 ± 0.35
x1 = 0.04	976.381 ± 0.33	972.612 ± 0.34	970.596 ± 0.35	968.411 ± 0.35	962.812 ± 0.37
x1 = 0.0799	957.078 ± 0.39	949.316 ± 0.42	945.543 ± 0.43	941.882 ± 0.44	936.416 ± 0.46
x1 = 0.0962	–	939.288 ± 0.45	–	932.747 ± 0.47	927.169 ± 0.48
x1 = 0.1023	–	935.289 ± 0.46	–	928.614 ± 0.48	923.171 ± 0.5
x1 = 0.1157	–	927.131 ± 0.49	–	918.262 ± 0.51	–
x1 = 0.1191	933.215 ± 0.47	925.183 ± 0.49	920.953 ± 0.51	916.971 ± 0.52	910.193 ± 0.54
x1 = 0.1717	905.317 ± 0.56	896.85 ± 0.58	892.377 ± 0.6	888.178 ± 0.61	883.177 ± 0.62
x1 = 0.229	–	871.09 ± 0.67	–	–	–
x1 = 0.2382	876.611 ± 0.65	867.217 ± 0.68	863.096 ± 0.69	858.163 ± 0.7	848.844 ± 0.73
x1 = 0.2939	859.045 ± 0.71	–	842.233 ± 0.76	837.568 ± 0.77	827.974 ± 0.8
x1 = 0.3003	857.537 ± 0.71	844.712 ± 0.75	839.967 ± 0.77	835.41 ± 0.78	825.737 ± 0.81
x1 = 0.3501	–	829.202 ± 0.8	824.477 ± 0.82	819.781 ± 0.83	810.104 ± 0.86
x1 = 0.3558	838.534 ± 0.77	–	822.73 ± 0.82	817.933 ± 0.84	808.149 ± 0.86
x1 = 0.3911	–	–	–	809.086 ± 0.86	–
x1 = 0.4057	–	814.027 ± 0.85	809.021 ± 0.87	–	794.354 ± 0.91
x1 = 0.4407	815.342 ± 0.85	–	–	795.926 ± 0.91	–
x1 = 0.4625	810.256 ± 0.87	799.75 ± 0.9	795.056 ± 0.91	789.779 ± 0.93	779.967 ± 0.96
x1 = 0.4844	805.352 ± 0.88	–	–	784.888 ± 0.94	–
x1 = 0.5091	799.695 ± 0.9	–	–	–	769.213 ± 0.99
x1 = 0.523	–	–	781.055 ± 0.96	–	766.718 ± 1
x1 = 0.5287	–	–	–	775.014 ± 0.98	–
x1 = 0.6144	779.133 ± 0.97	768.288 ± 1	763.538 ± 1	759.804 ± 1	748.753 ± 1.1
x1 = 0.6304	775.979 ± 0.98	–	760.21 ± 1	–	745.249 ± 1.1
x1 = 0.7017	763.313 ± 1	–	747.769 ± 1.1	742.589 ± 1.1	732.049 ± 1.1
x1 = 0.7022	–	752.772 ± 1.1	–	742.461 ± 1.1	732.247 ± 1.1
x1 = 0.726	–	–	742.965 ± 1.1	–	–
x1 = 0.7549	–	–	738.917 ± 1.1	733.676 ± 1.1	723.048 ± 1.1
x1 = 0.7771	751.837 ± 1.1	–	735.541 ± 1.1	730.331 ± 1.1	719.687 ± 1.2
x1 = 0.805	749.039 ± 1.1	737.02 ± 1.1	731.853 ± 1.1	726.558 ± 1.1	–
x1 = 0.8523	741.596 ± 1.1	729.358 ± 1.1	724.287 ± 1.2	718.777 ± 1.2	708.199 ± 1.2
x1 = 0.8755	735.261 ± 1.1	–	–	715.631 ± 1.2	–
x1 = 0.8822	–	725.559 ± 1.2	719.965 ± 1.2	714.728 ± 1.2	–
x1 = 0.8941	–	–	718.394 ± 1.2	713.135 ± 1.2	702.403 ± 1.2
x1 = 0.9019	732.413 ± 1.1	–	–	712.05 ± 1.2	–
x1 = 0.931	–	718.71 ± 1.2	713.312 ± 1.2	708.033 ± 1.2	–
x1 = 0.941	726.848 ± 1.2	–	712.088 ± 1.2	706.818 ± 1.2	696.061 ± 1.2
x1 = 0.9589	724.66 ± 1.2	–	–	704.314 ± 1.2	–
x1 = 0.9727	–	–	708.394 ± 1.2	703.131 ± 1.2	692.387 ± 1.3
x1 = 0.979	721.447 ± 1.2	–	–	701.729 ± 1.2	–
x1 = 1	719.94 ± 1.2	709.52 ± 1.2	704.59 ± 1.2	698.97 ± 1.2	688.29 ± 1.3
